# Columns and labels:
# [1] = target: T1, human S1P1 receptor (Homo sapiens, UniProt P21453); experiment: GTP γ35S binding assay for S1P1 activity; format: biochemical; conditions: membranes of cells stably expressing S1P1 receptor, 30 min at 25° C.
# T1 construct: expressed in transfected cells; membranes used
# Experimental: Compounds were tested for S1P1 activity using the GTP γ^35S binding assay. These compounds may be assessed for their ability to activate or block activation of the human S1P1 receptor in cells stably expressing the S1P1 receptor.
# GTP γ^35S binding was measured in the medium containing (mM) HEPES 25, pH 7.4, MgCl2 10, NaCl 100, dithitothreitol 0.5, digitonin 0.003%, 0.2 nM GTP γ^35S, and 5 μg membrane protein in a volume of 150 μl. Test compounds were included in the concentration range from 0.08 to 5,000 nM unless indicated otherwise. Membranes were incubated with 100 μM 5′-adenylylimmidodiphosphate for 30 min, and subsequently with 10 μM GDP for 10 min on ice. Drug solutions and membrane were mixed, and then reactions were initiated by adding GTP γ^35S and continued for 30 min at 25° C. Reaction mixtures were filtered over Whatman GF/B filters under vacuum, and washed three times with 3 mL of ice-cold buffer (HEPES 25, pH 7.4, MgCl2 10 and NaCl 100). Filters were dried and mixed with scintillant, and counted for ^35S activity using a β-counter. Agonist-induced GTP γ^35S binding was obtained by subtracting that in the absence of agonist. Binding data were analyzed using a non-linear regression method. In case of antagonist assay, the reaction mixture contained 10 nM S1P in the presence of test antagonist at concentrations ranging from 0.08 to 5000 nM. Activity potency: S1P1 receptor from GTP γ^35S: nM, (EC50),
# [2] = test system: blood lymphocytes; experiment: Lymphopenia assay in mice; format: in vivo; conditions: female C57BL6 mice, 10 mg/Kg subcutaneously, after 24 hours
# Experimental: Test drugs are prepared in a solution containing 3% (w/v) 2-hydroxy propyl β-cyclodextrin (HPBCD) and 1% DMSO to a final concentration of 1 mg/ml, and subcutaneously injected to female C57BL6 mice (CHARLES RIVERS) weighing 20-25 g at the dose of 10 mg/Kg. Blood samples are obtained by puncturing the submandibular skin with a Goldenrod animal lancet at 24, 48, 72, and 96 hrs post drug application. Blood is collected into microvettes (SARSTEDT) containing EDTA tripotassium salt. Lymphocytes in blood samples are counted using a HEMAVET Multispecies Hematology System, HEMAVET HV950FS (Drew Scientific Inc.).
# (Hale, J. et al Bioorg. & Med. Chem. Lett. 14 (2004) 3351).
# A lymphopenia assay in mice; as previously described, was employed to measure the in vivo blood lymphocyte depletion after dosing with (2S)-2-amino-3-oxo-3-({4-[(5-phenylpentyl)oxy]-3-(2-thienyl)phenyl}amino)propyl dihydrogen phosphate. This S1P1 agonist is useful for S1P-related diseases and exemplified by the lymphopenia in vivo response. […] Lymphocytes in blood samples were counted using a HEMAVET Multispecies Hematology System, HEMAVET HV950FS (Drew Scientific Inc.). […]
# T1 sequence (P21453 whole entry): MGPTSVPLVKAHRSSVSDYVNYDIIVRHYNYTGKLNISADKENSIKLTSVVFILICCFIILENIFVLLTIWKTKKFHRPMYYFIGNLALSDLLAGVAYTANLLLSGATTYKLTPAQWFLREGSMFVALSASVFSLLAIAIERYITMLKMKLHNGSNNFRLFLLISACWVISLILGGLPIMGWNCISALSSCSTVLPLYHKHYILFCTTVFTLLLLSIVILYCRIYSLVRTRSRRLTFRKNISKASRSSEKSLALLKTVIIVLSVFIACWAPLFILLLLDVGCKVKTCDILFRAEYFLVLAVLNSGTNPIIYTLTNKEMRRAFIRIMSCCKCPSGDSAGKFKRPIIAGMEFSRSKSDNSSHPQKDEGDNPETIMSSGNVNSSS
EC50 [1] [nM],Compound,lymphocyte count (number of lymphocytes 10^3/μL blood) [2]
96,"C[C@@](N)(COP(=O)(O)O)C(=O)Nc1ccc(OCCCCCc2ccccc2)c(-c2cccs2)c1 [Compound 1, (2R)-2-amino-2-methyl-3-oxo-3-({4-[(5-phenylpentyl)oxy]-3-(2-thienyl)phenyl}amino)propyl dihydrogen phosphate]",
34,"C[C@](N)(COP(=O)(O)O)C(=O)Nc1ccc(OCCCCCc2ccccc2)c(-c2cccs2)c1 [Compound 2, (2S)-2-amino-2-methyl-3-oxo-3-({4-[(5-phenylpentyl)oxy]-3-(2-thienyl)phenyl}amino)propyl dihydrogen phosphate]",
3,"N[C@@H](COP(=O)(O)O)C(=O)Nc1ccc(OCCCCCc2ccccc2)c(-c2cccs2)c1 [Compound 4, (2S)-2-amino-3-oxo-3-({4-[(5-phenylpentyl)oxy]-3-(2-thienyl)phenyl}amino)propyl dihydrogen phosphate]",< 1 10^3/μL blood

Compound,EC50 [1] [nM],lymphocyte count (number of lymphocytes 10^3/μL blood) [2]
(2S)-2-amino-3-({3-(2-furyl)-4-[(5-phenylpentyl)oxy]phenyl}amino)-3-oxopropyl dihydrogen phosphate [Compound 3],8,

# Reference: patent publication US8653270B2, “Compounds as receptor modulators with therapeutic utility” (Allergan, Inc., priority 2010, dated 2014)
